In one data set the target is human thrombocytes. Description: Competitive binding of ^3 H-BIBU 52/test substance to human thrombocytes. Conditions: human thrombocytes in plasma; ^3 H-BIBU 52 5 nM; ambient temperature, 20 minutes. Here is the method: 1. Competitive binding of ^3 H-BIBU 52/test substance to human thrombocytes: […] Case 5/1093-FL), which replaces the ^125 I fibrinogen ligand known from the literature and various concentrations of the substance to be tested. The free and bound ligand is separated by centrifuging and quantified by scintillation counting. The inhibition of ^3 H-BIBU 52 binding by the test substance is determined from the measurements obtained. In order to do this, donor blood is taken from an anticubital vein and anticoagulated with trisodium citrate (final concentration 13 mM). The blood is centrifuged for 10 minutes at 170×g and the supernatant platelet-rich plasma (PRP) is removed. The remaining blood is vigorously centrifuged once more in order to obtain plasma. The PRP is diluted 1:10 with autologous plasma. 750 μl are incubated with 50 μl of physiological saline solution, 100 μl of test substance solution, 50 μl of ^14 C-sucrose (3,700 Bq) and 50 μl of ^3 H-BIBU 52 (final concentration: 5 nM) at ambient temperature for 20 minutes. In order to measure the non-specific binding, 5μl of BIBU 52 (final concentration: 30 μM) are used instead of the test substance. The samples are centrifuged for 20 seconds at 10,000×g and the supernatant is poured off. 100 μl thereof are measured in order to determine the free ligand. The pellet is dissolved in 500 μl of 0.2N NaOH, 450 μl are mixed with 2 ml of scintillator and 25 μl of 5N HCl and measured. The residual plasma remaining in the pellet is determined from the ^14 C-content and the bound ligand is determined from the ^3 H-measurement. After the non-specific binding has been deducted, the pellet activity is plotted against the concentration of the test substance and the concentration for 50% inhibition of binding is determined. 2. Antithrombotic activity

The test system of another data set is platelet aggregation. Description: Inhibition of platelet aggregation (collagen-induced, Born and Cross, platelet-rich plasma of healthy volunteers). In kind it is cell-based. Conditions: Homo sapiens, Platelet, 10 minutes preincubation at 37° C. Here is the method: In order to do this, donor blood is taken from an anticubital vein and anticoagulated with trisodium citrate (final concentration 13 mM). The blood is centrifuged for 10 minutes at 170×g and the supernatant platelet-rich plasma (PRP) is removed. The remaining blood is vigorously centrifuged once more in order to obtain plasma. The PRP is diluted 1:10 with autologous plasma. 750 μl are incubated with 50 μl of physiological saline solution, 100 μl of test substance solution, 50 μl of ^14 C-sucrose (3,700 Bq) and 50 μl of ^3 H-BIBU 52 (final concentration: 5 nM) at ambient temperature for 20 minutes. In order to measure the non-specific binding, 5μl of BIBU 52 (final concentration: 30 μM) are used instead of the test substance. The samples are centrifuged for 20 seconds at 10,000×g and the supernatant is poured off. 100 μl thereof are measured in order to determine the free ligand. The pellet is dissolved in 500 μl of 0.2N NaOH, 450 μl are mixed with 2 ml of scintillator and 25 μl of 5N HCl and measured. The residual plasma remaining in the pellet is determined from the ^14 C-content and the bound ligand is determined from the ^3 H-measurement. After the non-specific binding has been deducted, the pellet activity is plotted against the concentration of the test substance and the concentration for 50% inhibition of binding is determined. 2. Antithrombotic activity The thrombocyte aggregation is measured using the method of Born and Cross (J. Physiol. 170: 397 (1964)) in platelet-rich plasma taken from healthy volunteers. To inhibit coagulation the blood is mixed with 3.14% sodium citrate in a volume ratio of 1:10. The pattern of the decrease in optical density of the platelet suspension is photometrically measured and recorded after the addition of the aggregation-triggering substance. The rate of aggregation is determined from the angle of inclination of the density curve. The point on the curve where there is maximum light transmittance is used to calculate the optical density. The concentration of collagen used is as small as possible but sufficient to produce an irreversible reaction curve. Standard commercial collagen produced by Hormonchemie of Munich is used. Before the addition of the collagen the plasma is incubated for 10 minutes with the substance at 37° C. From the concentration/activity curve an EC50 is determined, which describes the concentration giving a 50% change in the optical density in terms of the inhibition of aggregation.

The test system of the next data set is mice. Description: Tolerability after intravenous administration to mice. In kind it is in vivo. The following applies: 30 mg/kg, three mice in each case.
The subject of data set [1] is collagen-induced thrombocyte aggregation. Put plainly: Collagen-induced thrombocyte aggregation ex vivo after oral administration, Rhesus monkeys. In kind it is in vivo. The following applies: 1 mg/kg, collagen 2 μg/ml. Here is the method:
The inhibition of thrombocyte aggregation after oral administration of the test substance is determined ex vivo on Rhesus monkeys. Directly before the oral administration of the test substance suspended in Natrosol, a blood sample is taken from the cubital vein of the animals to provide a reference value. At specified times after the administration of the substance, fresh blood samples are taken and investigated as follows. The whole blood mixed with 3.14% sodium citrate in a ratio by volume of 1:10 is centrifuged at 200×g for 15 minutes. The supernatant, platelet-rich plasma, is carefully removed. From the sediment which is rich in erythrocytes, the platelet-poor plasma is obtained as supernatant,by centrifuging at 4000×g for 10 minutes. The thrombocyte aggregation triggered with collagen (Hormonchemie, Munich; 2 μg/ml final concentration in platelet-rich plasma) in these ex vivo samples is measured photometrically using the method of Born and Cross (J. Physiol. 170, 397 (1964)). The maximum light transmittance of the platelet-rich plasma, measured after collagen stimulation, is compared with the reference value in order to determine the inhibition of aggregation at the various times of blood sampling after the administration of the substance, relative to the reference value.

Structures can show the parent of a compound that is named as a salt.

Experimental findings from US5442064A, “Carboxylic acid derivatives, pharmaceutical compositions containing these compounds and processes for preparing them” (Dr. Karl Thomae GmbH, priority 1992, dated 1995) are described below.

With `Cl.Cl.N=C(N)c1ccc(N2CCN(C(=O)N[C@H]3CC[C@H](C(=O)O)CC3)CC2)nc1` [2(7), 1-(5-amidinopyrid-2-yl)-4-[N-(trans-4-carboxycyclohexyl)-aminocarbonyl]-piperazine-dihydrochloride], the IC50 (as a rule, the concentration that gives 50% inhibition) at human thrombocytes amounted to 29 nM. For the same molecule, the EC50 (as a rule, the midpoint of the concentration-response curve) with platelet aggregation turned out to be 80 nM. Besides, in the data set on mice, the “tolerability (animals died)” value was “no animals died”.

`CN(C(=O)N1CCN(c2ccc(C(=N)N)cn2)CC1)[C@H]1CC[C@H](C(=O)O)CC1.Cl.Cl` [2(8), 1-(5-amidinopyrid-2-yl)-4-[N-(trans-4-carboxycyclohexyl)-N-methyl-aminocarbonyl]-piperazine-dihydrochloride] displayed an IC50 on human thrombocytes of 27 nM. Also, in the data set with platelet aggregation, the EC50 worked out at 60 nM. The “tolerability (animals died)” value in the data set on mice was “no animals died”.

For `COC(=O)[C@H]1CC[C@H](NC(=O)C2CCN(c3ccc(C(=N)N)cc3)CC2)CC1.Cl` [Example 1(24), 1-(4-amidinophenyl)-4-[N-[trans-4-(methoxycarbonyl)-cyclohexyl]-aminocarbonyl]-piperidine-hydrochloride], in data set [1], the “inhibits the collagen-induced thrombocyte aggregation ex vivo (duration)” value is recorded as “more than 4 hours”. Further, on human thrombocytes, the half-maximal inhibitory concentration (IC50) was determined as 4400 nM. This molecule also had a half-maximal effective concentration (EC50) with platelet aggregation of 220 nM.

At human thrombocytes, `Cl.Cl.N=C(N)c1ccc(N2CCN(C(=O)N[C@H]3CC[C@H](C(=O)O)CC3)CC2)cc1.O` [Example 2, 1-(4-Amidinophenyl)-4-[N-[trans-4-carboxycyclohexyl]aminocarbonyl]-piperazine-dihydrochloride-hydrate] returned an IC50 of 7.4 nM. Further, the midpoint of the response in the data set with platelet aggregation, the EC50, lay at 40 nM. The “tolerability (animals died)” value in the data set on mice is recorded as “no animals died”.

Regarding `NCc1ccc(N2CCN(C(=O)N[C@H]3CC[C@H](C(=O)O)CC3)CC2)cc1` [Example 3, 1-(4-Aminomethylphenyl)-4-[N-(trans-4-carboxycyclohexyl)-aminocarbonyl]-piperazine], the IC50 at human thrombocytes is 130 nM. This molecule also returned an EC50 in the data set with platelet aggregation of 230 nM. The “tolerability (animals died)” value with mice is on record as “no animals died”.

The molecule `COC(=O)[C@H]1CC[C@H](NC(=O)N2CCN(c3ccc(CN)cc3)CC2)CC1` [Example 4, 1-(4-Aminomethylphenyl)-4-[N-[trans-4-(methoxycarbonyl)-cyclohexyl]-aminocarbonyl]-piperazine-hydrochloride] showed an IC50 on human thrombocytes of 5300 nM. The molecule further returned an EC50 in the data set on platelet aggregation of 4300 nM.

Regarding `COC(=O)N=C(N)c1ccc(N2CCN(C(=O)N[C@H]3CC[C@H](C(=O)OC)CC3)CC2)cc1` [Example 5, 1-[4-(N-Methoxycarbonyl-amidinc)-phenyl]-4-[N-[trans-4-(methoxycarbonyl)-cyclohexyl]-aminocarbonyl]-piperazine], the “tolerability (animals died)” value in the data set on mice is reported as “no animals died”.

For the molecule `CC(C)OC(=O)[C@H]1CC[C@H](NC(=O)N2CCN(c3ccc(C(=N)N)cc3)CC2)CC1` [Example 7, 1-(4-Amidinophenyl)-4-[N-[trans-4-(isopropoxycarbonyl)-cyclohexyl]-aminocarbonyl]-piperazine-dihydrochloride], at human thrombocytes, the concentration for half-maximal inhibition (IC50) stood at 1200 nM. In addition, it took 280 nM to reach a half-maximal effect in the data set with platelet aggregation (EC50).

The molecule `CCOC(=O)[C@H]1CC[C@H](NC(=O)N2CCN(c3ccc(C(=N)N)cc3)CC2)CC1` [Example 8, 1-(4-Amidinophenyl)-4-[N-[trans-4-(ethoxycarbonyl)-cyclohexyl]-aminocarbonyl]-piperazine-dihydrochloride] displayed a concentration for half-maximal inhibition (IC50) at human thrombocytes of 540 nM. Further, the EC50 in the data set with platelet aggregation is 190 nM.
